Measured values published in ChEMBL document CHEMBL1201862, “PubChem BioAssay data set” (2004).
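The compound was tested at five concentrations on cells cultured in 96-well plates, with a 48-hour exposure period. The concentration for 50% growth inhibition is given as GI50.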 Activity calls are given as the source filed them. Rule as the data show it: active = GI50 up to about 1.1 µM and inactive = higher.

Experiments:
Assay in all cases: NCI-60 cell line screen, 48 h
[1] = system: UACC-257
[2] = system: EKVX
[3] = system: SF-295
[4] = system: SK-OV-3
[5] = system: RXF 393
[6] = system: SNB-19
[7] = system: SN12C
[8] = system: OVCAR-3
[9] = system: SR
[10] = system: NCI-H522
[11] = system: A498
[12] = system: HCT-15
[13] = system: DU-145
[14] = system: SNB-75
[15] = system: OVCAR-8
[16] = system: T47D
[17] = system: TK-10
[18] = system: HOP-92
[19] = system: SF-268
[20] = system: HCT-116

Row | SMILES | GI50 [1] | GI50 [2] | GI50 [3] | GI50 [4] | GI50 [5] | GI50 [6] | GI50 [7] | GI50 [8] | GI50 [9] | GI50 [10] | GI50 [11] | GI50 [12] | GI50 [13] | GI50 [14] | GI50 [15] | GI50 [16] | GI50 [17] | GI50 [18] | GI50 [19] | GI50 [20]
1 | O=C(O)Cc1cccnc1 | > 100 µM (inactive) | > 100 µM (inactive) | > 100 µM (inactive) | > 100 µM (inactive) | > 100 µM (inactive) | > 100 µM (inactive) | > 100 µM (inactive) | > 100 µM (inactive) | > 100 µM (inactive) | > 100 µM (inactive) | > 100 µM (inactive) | > 100 µM | > 100 µM (inactive) | > 100 µM (inactive) | > 100 µM (inactive) | > 100 µM (inactive) | > 100 µM (inactive) | > 100 µM (inactive) | > 100 µM (inactive) | > 100 µM (inactive)
2 | N#CCCN(CCC#N)c1ccc(C(/N=N/c2ccccc2)=N\c2ccccc2)cc1 | > 100 µM (inactive) | > 100 µM (inactive) | > 100 µM (inactive) | > 100 µM (inactive) | > 100 µM (inactive) | > 100 µM (inactive) | > 100 µM (inactive) | > 100 µM (inactive) | > 100 µM (inactive) | 59.6 µM (inactive) | > 100 µM (inactive) | > 100 µM | > 100 µM (inactive) | > 100 µM (inactive) | > 100 µM (inactive) | > 100 µM (inactive) | > 100 µM (inactive) | > 100 µM (inactive) | > 100 µM (inactive) | > 100 µM (inactive)
3 | CC1(C)CCCCCC(C)(CCCCCCCCCCCO)C1=O (stereo not given) | 14 µM (inactive) | 17.6 µM (inactive) | 15.7 µM (inactive) | 17.6 µM (inactive) | 16.9 µM (inactive) | 17.2 µM (inactive) | 16.1 µM (inactive) | 16 µM (inactive) | 1.41 µM (inactive) | 17.3 µM (inactive) | 17.9 µM (inactive) | 16.1 µM | 17.7 µM (inactive) | 16.3 µM (inactive) | 16.9 µM (inactive) | 14.6 µM (inactive) | 12.1 µM (inactive) | 17.3 µM (inactive) | 16.1 µM (inactive) | 15.3 µM (inactive)
